Measurements as given in ChEMBL document CHEMBL1129748, “Structure-activity relationships of 4-hydroxy-3-nitroquinolin-2(1H)-ones as novel antagonists at the glycine site of N-methyl-D-aspartate receptors” (J Med Chem, 1996).

How the values were obtained:
Glutamate NMDA receptor [1] = assay: Inhibition of [3H]DCKA binding to NMDA receptor of rat brain membranes.; format: cell membranes, Membrane
[2] = target: T1, Glutamate receptor ionotropic, AMPA (Rattus norvegicus) (UniProt P19491+P19492+P19493+P19490); assay: Compound was tested for inhibition of AMPA receptors was measured in oocytes expressing rat cerebral cortex poly(A)+ RNA.(Three cells were examined ); format: functional, cell-based; conditions: Oocyte
[3] = Compound was tested for steady-state selectivity index for inhibition at NMDAreceptor glycine sites was estimated by dividing Kb AMPA by Kb glycine.; format: functional
[4] = Compound was tested for steady-state selectivity index for inhibition at NMDA receptor glycine sites was estimated by dividing Kb AMPA by Kb glycine.; format: functional
[5] = target: T1, Glutamate receptor ionotropic, AMPA (Rattus norvegicus); assay: Compound was tested for inhibition of AMPA receptors was measured in oocytes expressing rat cerebral cortex poly(A)+ RNA.(Three cells were examined); format: functional, cell-based; conditions: Oocyte
Glutamate NMDA receptor [6] = assay: Compound was tested for inhibition of [3H]DCKA binding to NMDA receptor of rat brain membranes; format: cell membranes, Membrane

SMILES	IC50 (Glutamate NMDA receptor [1]) [nM]	other results
O=Nc1c(O)c2c(Cl)cc(Cl)cc2[nH]c1=O	33	
O=Nc1c(O)nc2c(Cl)cccc2c1O	> 100000	
O=[N+]([O-])c1c(O)nc2cc(Cl)c(Cl)c(Cl)c2c1O	220	Kb [2]: 19000 nM; Selectivity [3]: 240
O=[N+]([O-])c1c(O)nc2c(F)c(Cl)c(F)cc2c1O	40000	
Oc1nc2cc(Cl)c(Cl)cc2nc1O [2,3-DIHYDROXY-6,7-DICHLOROQUINOXALINE]	130	
Cc1cc(C)c2nc(O)c(O)nc2c1	2100	
O=[N+]([O-])c1c(O)nc2ccc(Cl)cc2c1O	> 100000	
O=[N+]([O-])c1c(O)nc2c(F)c(F)c(F)c(F)c2c1O	> 100000	
Oc1nc2cc(Cl)c(Cl)c(Cl)c2nc1O	30	
Oc1nc2cc(Cl)cc(Cl)c2nc1O	280	
Cc1cc(C)c2c(O)c(N=O)c(=O)[nH]c2c1	37	
O=Nc1c(O)nc2cc(Cl)c(Cl)c(Cl)c2c1O	7	
O=[N+]([O-])c1c(O)nc2c(Cl)cccc2c1O	> 100000	
O=Nc1c(O)c2c(F)c(F)c(F)c(F)c2[nH]c1=O	3300	
O=Nc1c(O)nc2ccccc2c1O	1400	
O=Nc1c(O)c2cc(F)c(Cl)c(F)c2[nH]c1=O	910	

SMILES	IC50 (Glutamate NMDA receptor [1]) [nM]	other results
O=[N+]([O-])c1c(O)nc2cc(Cl)cc(Cl)c2c1O	220	Selectivity [4]: 118; Kb [5]: 37000 nM
O=[N+]([O-])c1c(O)nc2c(Cl)c(Cl)c(Cl)cc2c1O	> 100000	
O=Nc1c(O)nc2cc(Cl)ccc2c1O	53	
O=c1[nH]c2ccc(Cl)cc2[nH]c1=O	1800	
O=[N+]([O-])c1c(O)nc2ccccc2c1O	34000	
O=[N+]([O-])c1c(O)nc2cc(Cl)c(Cl)cc2c1O	400	
O=Nc1c(O)nc2cccc(Cl)c2c1O	4400	
O=c1[nH]c2c(F)c(F)c(F)c(F)c2[nH]c1=O	730	
Cc1cc(C)c2c(O)c([N+](=O)[O-])c(O)nc2c1	290	Selectivity [4]: 164
O=[N+]([O-])c1c(O)nc2cccc(Cl)c2c1O	61000	
O=[N+]([O-])c1c(O)nc2cc(Cl)ccc2c1O		IC50 (Glutamate NMDA receptor [6]): 1500 nM
O=Nc1c(O)c2cc(Cl)ccc2[nH]c1=O	3400	
O=Nc1c(O)nc2cc(Cl)c(Cl)cc2c1O	12	
Oc1nc2cc(F)c(Cl)c(F)c2nc1O	630	
Oc1nc2ccccc2nc1O	9800	
